The structures appear in SMILES notation.

The target in the assay is T1, hUXS (human UDP-α-D-xylose synthase) (Homo sapiens, UniProt Q8NBZ7).
T1 sequence (Q8NBZ7 85-420): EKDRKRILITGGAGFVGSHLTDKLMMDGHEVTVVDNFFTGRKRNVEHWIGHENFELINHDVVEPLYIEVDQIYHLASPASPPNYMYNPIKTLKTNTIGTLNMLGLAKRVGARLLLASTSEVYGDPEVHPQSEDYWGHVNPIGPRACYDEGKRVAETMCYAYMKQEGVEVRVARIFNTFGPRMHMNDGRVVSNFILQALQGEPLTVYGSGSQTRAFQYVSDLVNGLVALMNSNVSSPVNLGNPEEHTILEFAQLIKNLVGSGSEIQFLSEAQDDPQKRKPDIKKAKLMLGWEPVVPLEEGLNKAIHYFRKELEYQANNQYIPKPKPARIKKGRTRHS
Put plainly: X-ray crystal structure, […] Å. Type of assay: binding. Conditions: copurified NAD+ bound, open conformation, no nucleotide sugar.

`NC(=O)c1ccc[n+]([C@@H]2O[C@H](COP(=O)(O)OP(=O)(O)OC[C@H]3O[C@@H](n4cnc5c(N)ncnc54)[C@H](O)[C@@H]3O)[C@@H](O)[C@H]2O)c1` [NAD^+]: the “X-ray crystal structure, 2.5 Å” value is listed as “Recombinant hUXS crystallizes with the copurified NAD^+ cofactor bound”.

Source of the values: article PMC4932848 (Biochemistry, 2012).
